PubChem BioAssay AID270 (DTP/NCI, 2004)
Values joined by “and” are separate entries in the source; they are usually repeats but may differ in a detail not shown here. Equal entries are not always repeated. Inconclusive results are not listed.

System: BDF1 mice, s.c. Lewis lung carcinoma, T/C %
Assay: NCI In Vivo Anticancer Drug Screen. Data for tumor model Lewis Lung Carcinoma (subcutaneous) in B6D2F1 (BDF1) mice
Method in brief: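 Tumor-bearing mice were treated with test compound, and either survival or tumor size was recorded. Values are the treated-group measurement divided by that of the vehicle-treated control group.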

SMILES: CC(=O)Oc1ccc(OC(C)=O)c2c1C(=O)C=CC2=O
- T/C (endpoint: median survival time, dose: 0.38 mg/kg/injection, schedule: Q01DX009 (ip), vehicle: Klucel (hydroxypropylcellulose) (HPC), higher = longer survival): 107 % of control
- T/C (endpoint: median survival time, dose: 0.75 mg/kg/injection, schedule: Q01DX009 (ip), vehicle: Klucel (hydroxypropylcellulose) (HPC), higher = longer survival): 96 % of control
- T/C (endpoint: median survival time, dose: 1.5 mg/kg/injection, schedule: Q01DX009 (ip), vehicle: Klucel (hydroxypropylcellulose) (HPC), higher = longer survival): 100 % of control
- T/C (endpoint: median survival time, dose: 3.0 mg/kg/injection, schedule: Q01DX009 (ip), vehicle: Klucel (hydroxypropylcellulose) (HPC), higher = longer survival): 113 % of control
- T/C (endpoint: median survival time, dose: 3.12 mg/kg/injection, schedule: Q01DX009 (ip), vehicle: Klucel (hydroxypropylcellulose) (HPC), higher = longer survival): 111 % of control

SMILES: O=c1[nH]c(=O)c2[nH]cnc2[nH]1
- T/C (endpoint: mean tumor weight, dose: 12.5 mg/kg/injection, schedule: Q01DX011 (ip), vehicle: saline, higher = larger tumour): 97 % of control
- T/C (endpoint: mean tumor weight, dose: 25.0 mg/kg/injection, schedule: Q01DX011 (ip), vehicle: saline, higher = larger tumour): 73 % of control
- T/C (endpoint: mean tumor weight, dose: 50.0 mg/kg/injection, schedule: Q01DX011 (ip), vehicle: saline, higher = larger tumour): 75 % of control and 76 % of control
- T/C (endpoint: mean tumor weight, dose: 100.0 mg/kg/injection, schedule: Q01DX011 (ip), vehicle: saline, higher = larger tumour): 118 % of control
- T/C (endpoint: mean tumor weight, dose: 200.0 mg/kg/injection, schedule: Q01DX011 (ip), vehicle: saline, higher = larger tumour): 109 % of control

SMILES: Nc1ccc(N=Nc2ccccc2)c(N)c1
- T/C (endpoint: median survival time, dose: 2.25 mg/kg/injection, schedule: Q01DX009 (ip), vehicle: Klucel (hydroxypropylcellulose) (HPC), higher = longer survival): 109 % of control
- T/C (endpoint: median survival time, dose: 4.5 mg/kg/injection, schedule: Q01DX009 (ip), vehicle: Klucel (hydroxypropylcellulose) (HPC), higher = longer survival): 102 % of control
- T/C (endpoint: median survival time, dose: 9.0 mg/kg/injection, schedule: Q01DX009 (ip), vehicle: Klucel (hydroxypropylcellulose) (HPC), higher = longer survival): 106 % of control
- T/C (endpoint: median survival time, dose: 18.0 mg/kg/injection, schedule: Q01DX009 (ip), vehicle: Klucel (hydroxypropylcellulose) (HPC), higher = longer survival): 101 % of control
- T/C (endpoint: median survival time, dose: 75.0 mg/kg/injection, schedule: Q01DX009 (ip), vehicle: Klucel (hydroxypropylcellulose) (HPC), higher = longer survival): 99 % of control
- T/C (endpoint: median survival time, dose: 200.0 mg/kg/injection, schedule: Q01DX009 (ip), vehicle: Klucel (hydroxypropylcellulose) (HPC), higher = longer survival): 97 % of control

SMILES: O=NN(CCCl)C(=O)NC1CCS(=O)(=O)CC1
- T/C (endpoint: median survival time, dose: 5.0 mg/kg/injection, schedule: Q04DX004 (ip), vehicle: Klucel (hydroxypropylcellulose) (HPC), higher = longer survival): 180 % of control
- T/C (endpoint: median survival time, dose: 7.0 mg/kg/injection, schedule: Q04DX004 (ip), vehicle: Klucel (hydroxypropylcellulose) (HPC), higher = longer survival): 231 % of control
- T/C (endpoint: median survival time, dose: 7.0 mg/kg/injection, schedule: Q04DX004 (ip), vehicle: carboxymethylcellulose (CMC), higher = longer survival): 121 % of control and 345 % of control
- T/C (endpoint: median survival time, dose: 8.5 mg/kg/injection, schedule: Q04DX004 (ip), vehicle: carboxymethylcellulose (CMC), higher = longer survival): 109 % of control
- T/C (endpoint: median survival time, dose: 8.5 mg/kg/injection, schedule: Q07DX002 (ip), vehicle: carboxymethylcellulose (CMC), higher = longer survival): 218 % of control
- T/C (endpoint: median survival time, dose: 10.0 mg/kg/injection, schedule: Q04DX004 (ip), vehicle: carboxymethylcellulose (CMC), higher = longer survival): 123 % of control
- T/C (endpoint: median survival time, dose: 11.0 mg/kg/injection, schedule: Q07DX002 (ip), vehicle: carboxymethylcellulose (CMC), higher = longer survival): 381 % of control
- T/C (endpoint: median survival time, dose: 14.0 mg/kg/injection, schedule: Q07DX002 (ip), vehicle: carboxymethylcellulose (CMC), higher = longer survival): 200 % of control

SMILES: CC(=O)Nc1c(Cl)cc2c(c1Cl)Cc1cc([N+](=O)[O-])ccc1-2
- T/C (endpoint: mean tumor weight, dose: 20.0 mg/kg/injection, schedule: Q01DX011 (ip), vehicle: carboxymethylcellulose (CMC), higher = larger tumour): 55 % of control
- T/C (endpoint: mean tumor weight, dose: 40.0 mg/kg/injection, schedule: Q01DX011 (ip), vehicle: carboxymethylcellulose (CMC), higher = larger tumour): 32 % of control

SMILES: O=NN(CCCl)C(=O)NC1CCC(NC(=O)N(CCCl)N=O)CC1 (stereo unspecified)
- T/C (endpoint: median survival time, dose: 30.0 mg/kg/injection, schedule: Q04DX004 (ip), vehicle: saline with Tween-80, higher = longer survival): 123 % of control
- T/C (endpoint: median survival time, dose: 45.0 mg/kg/injection, schedule: Q01DX001 (ip), vehicle: saline with Tween-80, higher = longer survival): 109 % of control
- T/C (endpoint: median survival time, dose: 45.0 mg/kg/injection, schedule: Q04DX004 (ip), vehicle: saline with Tween-80, higher = longer survival): 156 % of control
- T/C (endpoint: median survival time, dose: 75.0 mg/kg/injection, schedule: Q04DX004 (ip), vehicle: saline with Tween-80, higher = longer survival): 104 % of control and 122 % of control
- T/C (endpoint: median survival time, dose: 84.0 mg/kg/injection, schedule: Q01DX001 (ip), vehicle: saline with Tween-80, higher = longer survival): 174 % of control
- T/C (endpoint: median survival time, dose: 90.0 mg/kg/injection, schedule: Q07DX002 (ip), vehicle: saline with Tween-80, higher = longer survival): 117 % of control and 222 % of control
- T/C (endpoint: median survival time, dose: 120.0 mg/kg/injection, schedule: Q07DX002 (ip), vehicle: saline with Tween-80, higher = longer survival): 116 % of control
- T/C (endpoint: median survival time, dose: 150.0 mg/kg/injection, schedule: Q07DX002 (ip), vehicle: saline with Tween-80, higher = longer survival): 105 % of control
- T/C (endpoint: median survival time, dose: 171.0 mg/kg/injection, schedule: Q01DX001 (ip), vehicle: saline with Tween-80, higher = longer survival): 179 % of control
- T/C (endpoint: median survival time, dose: 255.0 mg/kg/injection, schedule: Q01DX001 (ip), vehicle: saline with Tween-80, higher = longer survival): 112 % of control
- T/C (endpoint: median tumor weight (est.), dose: 30.0 mg/kg/injection, schedule: Q01DX001 (ip), vehicle: saline with Tween-80, higher = larger tumour): 88 % of control
- T/C (endpoint: median tumor weight (est.), dose: 45.0 mg/kg/injection, schedule: Q01DX001 (ip), vehicle: saline with Tween-80, higher = larger tumour): 121 % of control
- T/C (endpoint: median tumor weight (est.), dose: 67.0 mg/kg/injection, schedule: Q01DX001 (ip), vehicle: saline with Tween-80, higher = larger tumour): 64 % of control
- T/C (endpoint: median tumor weight (est.), dose: 101.0 mg/kg/injection, schedule: Q01DX001 (ip), vehicle: saline with Tween-80, higher = larger tumour): 83 % of control
- T/C (endpoint: median tumor weight (est.), dose: 152.0 mg/kg/injection, schedule: Q01DX001 (ip), vehicle: saline with Tween-80, higher = larger tumour): 23 % of control
